The target of one experiment is T1, Haloperidol Receptor (Bos taurus, UniProt P20288).
T1 construct: from tissue
Description: Haloperidol Receptor Binding (dopaminergic agents). To be noted: read-out: % Inhibition (Haloperidol Receptor Binding). An excerpt: The method for determining the effectiveness of the compounds of the instant invention as dopaminergic agents is explained in Mol. Pharmacol., 1976 (12) 800 herein incorporated by reference.

The test system of experiment [1] is Locomotor Activity in Mouse. The experiment is described as follows: Inhibition of Locomotor Activity in Mouse (Mouse Activity and Screen Test Procedure). It counts as in vivo. The conditions noted are these: read-out: ED50, Inhibition of Locomotor Activity in Mouse. An excerpt:
The effects of representative compounds of the present invention as antipsychotic agents was established by the Mouse Activity and Screen Test Procedure described in Pharmacol. Biochem. Behav. 1978 (8) 97, herein incorporated by reference.
Inhibition of Locomotor Activity in Mouse

Experiment [2] has as its system Spontaneous Hypertensive Rat. Description: Antihypertensive action, Spontaneous Hypertensive Rat. It counts as in vivo. To be noted: 30 mg/kg, PO. On the procedure: The methodology for testing the antihypertensive action of the compounds of the invention is described in Am. J. Med. Sci., 1970 (259)257, herein incorporated by reference. These experiments are considered standard tests in mammals and are indicative of utility for treatment of similar diseases in humans.
Spontaneous Hypertensive Rat (30 mg/kg, PO)

Like-named read-outs stand apart in the source and are kept apart here.

The term inhibition denotes the share of the control response that was lost under treatment. In general, ED50 refers to the midpoint of the dose-response relation.

T1 sequence (P20288 whole entry): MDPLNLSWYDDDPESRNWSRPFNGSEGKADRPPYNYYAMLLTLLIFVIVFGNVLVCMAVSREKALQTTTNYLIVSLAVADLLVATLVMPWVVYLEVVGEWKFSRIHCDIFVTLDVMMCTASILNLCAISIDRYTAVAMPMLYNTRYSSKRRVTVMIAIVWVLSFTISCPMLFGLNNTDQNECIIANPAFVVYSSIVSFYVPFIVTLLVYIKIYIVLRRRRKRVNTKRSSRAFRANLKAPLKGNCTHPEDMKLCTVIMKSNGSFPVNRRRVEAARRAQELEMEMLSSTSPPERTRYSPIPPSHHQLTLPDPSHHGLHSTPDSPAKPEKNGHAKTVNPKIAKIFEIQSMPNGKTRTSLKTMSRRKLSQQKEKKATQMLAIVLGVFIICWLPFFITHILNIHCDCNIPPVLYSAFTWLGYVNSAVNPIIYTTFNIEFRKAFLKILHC

`CCCN1CCCC(c2csc(N)n2)C1` (stereo not drawn) [III (single bond) R=R'=H; R"=(CH2)2 CH3, 4-(1-Propyl-3-piperidyl)-2-thiazolamine]: the inhibition at 1 µM at Haloperidol Receptor was 15%. In experiment [1], the ED50 was found to be 10 mg/kg.

In the case of `CCCN1CCC=C(c2csc(NC(C)=O)n2)C1` [N-[4-(1,2,5,6-Tetrahydro-1-propyl-3-pyridinyl)-2-thiazolyl]-acetamide], the inhibition at 1 µM at Haloperidol Receptor (at 10^-6 M) amounted to 0%. Moreover, in experiment [1], the ED50 came out at 30 mg/kg.

As for `C=CCN1CCC=C(c2csc(N)n2)C1` [III (double bond) R=R'=H; R"=CH2 CH=CH2, 4-(1,2,5,6-Tetrahydro-1-allyl-3-pyridinyl)-2-thiazolamine], the inhibition at 1 µM at Haloperidol Receptor (at 10^-6 M) came to 40%. Also, the ED50 in experiment [1] was 3 mg/kg.

Take `Nc1nc(C2=CCCN(CCc3ccccc3)C2)cs1` [III (double bond) R=R'=H; R"=(CH2)2 Ph, 4-[1,2,5,6-Tetrahydro-1-(2-phenylethyl)-3-pyridinyl]-2-thiazolamine]: on Haloperidol Receptor, the inhibition at 1 µM was found to be 16%. In addition, the ED50 in experiment [1] came out at 18.1 mg/kg.

Regarding `CCOCCN1CCC=C(c2csc(N)n2)C1` [4-[1-(2-Ethoxyethyl)-1,2,5,6-tetrahydro-3-pyridinyl]-2-thiazolamine], the inhibition at 1 µM at Haloperidol Receptor (at 10^-6 M) is 35%. In experiment [1], the ED50 amounted to 30 mg/kg.

Regarding `CCCCCN1CCC=C(c2csc(N)n2)C1` [III (double bond) R=R'=H; R"=(CH2)4 CH3, 4-(1,2,5,6-Tetrahydro-1-pentyl-3-pyridinyl)-2-thiazolamine], the inhibition at 1 µM on Haloperidol Receptor (at 10^-6 M) was found to be 26%. In experiment [1], the ED50 was below 10 mg/kg.

Consider `CCCN1CCC=C(c2csc(NC)n2)C1` [N-Methyl-4-(1,2,5,6-tetrahydro-1-propyl-3-pyridinyl)-2-thiazolamine], for which, in experiment [1], the 50% effective dose (ED50) was found to be 10 mg/kg.

Consider `CCCCCN1CCC=C(c2csc(NC)n2)C1` [N-methyl-4-(1,2,5,6-tetrahydro-1-pentyl-3-pyridinyl)-2-thiazolamine], for which the ED50 in experiment [1] was below 10 mg/kg.

As for `CCCCCCCN1CCC=C(c2csc(N)n2)C1` [III (double bond) R=R'=H; R"=(CH2)6 CH3, 4-(1,2,5,6-Tetrahydro-1-heptyl-3-pyridinyl)-2-thiazolamine], the ED50 in experiment [1] amounted to 10.4 mg/kg.

With `CCCCCN1CCC=C(c2csc(NC(C)=O)n2)C1` [N-[4-(1,2,5,6-Tetrahydro-1-pentyl-3-pyridinyl)-2-thiazolyl]acetamide], the inhibition at 1 µM on Haloperidol Receptor (at 10^-6 M) was 0%. Moreover, the 50% effective dose (ED50) in experiment [1] is 10 mg/kg.

For the compound `CN1CCC=C(c2csc(N)n2)C1` [III (double bond) R=R'=H; R"=CH3, 4-(1,2,5,6-Tetrahydro-1-methyl-3-pyridinyl)-2-thiazolamine], the inhibition at 1 µM on Haloperidol Receptor (at 10^-6 M) stood at 50%. The ED50 in experiment [1] was 30 mg/kg.

On to `CC(C)CCN1CCC=C(c2csc(N)n2)C1` [drawing 6], for which the “Decrease in Blood Pressure” value in experiment [2] (duration up to 10 hours) is recorded as 12-20%. The “Duration (of decrease in blood pressure)” value in experiment [2] (of the 12-20% decrease) was “up to 10 hours”.

For `CCCCN1CCC=C(c2csc(N)n2)C1` [III (double bond) R=R'=H; R"=(CH2)3 CH3, 4-(1,2,5,6-Tetrahydro-1-butyl-3-pyridinyl)-2-thiazolamine], the inhibition at 1 µM at Haloperidol Receptor (at 10^-6 M) amounted to 57%. The ED50 in experiment [1] is 7.3 mg/kg.

Regarding `CCCN1CCC=C(c2csc(N)n2)C1` [drawing 5], the “Decrease in Blood Pressure” value in experiment [2] (duration 1 hour) was 20%; in experiment [2] (duration up to 6 hours), 10-15%. In addition, the entries for the “Duration (of decrease in blood pressure)” value in experiment [2] (of the 10-15% decrease) and in experiment [2] (of the 20% decrease) were “up to 6 hours” and 1 h, respectively.

`CCCN1CCCC(c2csc(NC(C)=O)n2)C1` (stereo not drawn) [N-[4-(1-propyl-3-piperidyl)-2-thiazolyl]acetamide]: on Haloperidol Receptor (at 10^-6 M), the inhibition at 1 µM was 9%. For the same compound, in experiment [1], the ED50 stood at 30 mg/kg.

On to `CCCN1CCC=C(c2csc(N(C)C(C)=O)n2)C1` [N-methyl-N-[4-(1,2,5,6-tetrahydro-1-propyl-3-pyridinyl)-2-thiazolyl]-acetamide], for which the ED50 in experiment [1] was 39 mg/kg.

Regarding `CCCN1CCC=C(c2csc(N)n2)C1` [III (double bond) R=R'=H; R"=(CH2)2 CH3, 4-(1,2,5,6-Tetrahydro-1-propyl-3-pyridinyl)-2-thiazolamine], at Haloperidol Receptor (at 10^-6 M), the inhibition at 1 µM was found to be 66%. Moreover, the ED50 in experiment [1] turned out to be 2.9 mg/kg.

Take `CCCCCN1CCC=C(c2csc(N(C)C(C)=O)n2)C1` [N-methyl-N-[4-(1,2,5,6-tetrahydro-1-pentyl-3-pyridinyl)-2-thiazolyl[-acetamide]: the median effective dose (ED50) in experiment [1] stood at 6.4 mg/kg.

As to `CCN1CCC=C(c2csc(N)n2)C1` [III (double bond) R=R'=H; R"=CH2 CH3, 4-(1,2,5,6-Tetrahydro-1-ethyl-3-pyridinyl)-2-thiazolamine], the inhibition at 1 µM at Haloperidol Receptor (at 10^-6 M) was 49%. The ED50 in experiment [1] is above 30 mg/kg.

Regarding `CC(C)CCN1CCC=C(c2csc(N)n2)C1` [4-[1,2,5,6-Tetrahydro-1-(3-methylbutyl)-3-pyridinyl]-2-thiazolamine], the inhibition at 1 µM on Haloperidol Receptor (at 10^-6 M) was determined as 65%. In addition, in experiment [1], the ED50 was 8.7 mg/kg.

As for `CCCCCCN1CCC=C(c2csc(N)n2)C1` [III (double bond) R=R'=H; R"=(CH2)5 CH3, 4-(1,2,5,6-Tetrahydro-1-hexyl-3-pyridinyl)-2-thiazolamine], the inhibition at 1 µM at Haloperidol Receptor (at 10^-6 M) stood at 88%. The 50% effective dose (ED50) in experiment [1] was above 30 mg/kg.

These data come from US4739067A, “4-(1,2,5,6-tetrahydro-1-alkyl-3-pyridinyl)-2-thiazolamines and 4-(hexahydro-1-alkyl-3-pyridinyl)-2-thiazolamines” (priority 1986, dated 1988).
